Measurements published in ChEMBL document CHEMBL6078624, “Structure-based discovery of a 4,5-Dihydropyrazole-cored PET ligand for imaging of receptor-interacting serine/threonine-protein kinase 1 (RIPK1) in the brain” (Eur J Med Chem, 2024).
pEC50: −log10 of the molar value.

Assay: Inhibition of TSZ-induced necroptosis in human HT-29 cells by CellTiter-Glo luminescent cell viability assay

| SMILES | pEC50 |
| --- | --- |
| O=C(c1cccc(F)n1)N1CCC(C(=O)N2N=CCC2c2cc(F)cc(F)c2)CC1 (configuration not stated) | 7.00 |
| Cc1ccc(C2CC=NN2C(=O)C2CCN(C(=O)c3cccc(F)n3)CC2)cc1F (configuration not stated) | 7.70 |
